Source: patent publication US7862824B2, “Enhancement of GLP-2 activity of suppressing appetite” (1149336 Ontario, Inc., priority 2001, dated 2011)
Where no end group is shown, it is not given here.

Experiments:
[1] = system: human subjects with short bowel syndrome; settings: 400 ug twice daily; cited from earlier work
[2] = system: rats; settings: cited from earlier work
[3] = system: GLP-1R-/- mice; test: Intracerebroventricular peptide injection and food intake in GLP-1R-/- mice; format: in vivo, mouse; settings: icv 50 ug; dark phase; 0-1 hour and 2-4 hour time points
Description: FIG. 1: h[Gly^2]-GLP-2 (also designated “440” in the Figure) inhibits dark phase food intake in mice. […] Following recovery, food intake was measured at 1, 2, and 4 hours (Hr) after injection. Values are expressed as mean±S.E.M., n=6 per group for (a) and n=8-20 for (b). (c) Groups of wildtype mice were administered either vehicle (PBS), h[Gly^2]-GLP-2 (50 ug dissolved in PBS), h[Gly^2]-GLP-2 and exendin (9-39) (50 ug of each peptide dissolved in PBS) or exendin (9-39) alone (50 ug dissolved in PBS) via icv injection. (f) Groups of wildtype mice were administered (icv) either vehicle (PBS), h[Gly^2]-GLP-2 alone (50 ug dissolved in PBS), or h[Gly^2]-GLP-2 (50 ug dissolved in PBS) and exendin (9-39) (0.05, 0.5 or 5 ug dissolved in PBS). (e) Groups of wildtype and GLP-1R−/− mice were injected icv with either vehicle (PBS) or h[Gly^2]-GLP-2 (50 ug dissolved in PBS) just prior to the start of dark phase and food intake was measured at 1, 2, and 4 hours. Data are expressed as mean±S.E.M., n=5-8 for all groups. […]
For icv injections adult male CD1 mice randomized into multiple experimental groups were deeply anesthetized by inhalation of methoxyflurane (Metophane; Janssen, Toronto Ontario) (43). […] Mice were then weighed, given a premeasured quantity of rodent chow and food intake was quantified at 1, 2, 4 and 22 hours. […]

[4] = target: T1, rat GLP-1 receptor (Rattus norvegicus, UniProt P32301); test: cAMP accumulation in BHK cells stably expressing the rat GLP-1 receptor (RIA); format: cell-based; settings: BHK-GLP-1R cells
T1 construct: expressed in transfected cells; host or cells: BHK (baby hamster kidney fibroblast) cells, stably transfected
T1 sequence (P32301 22-463): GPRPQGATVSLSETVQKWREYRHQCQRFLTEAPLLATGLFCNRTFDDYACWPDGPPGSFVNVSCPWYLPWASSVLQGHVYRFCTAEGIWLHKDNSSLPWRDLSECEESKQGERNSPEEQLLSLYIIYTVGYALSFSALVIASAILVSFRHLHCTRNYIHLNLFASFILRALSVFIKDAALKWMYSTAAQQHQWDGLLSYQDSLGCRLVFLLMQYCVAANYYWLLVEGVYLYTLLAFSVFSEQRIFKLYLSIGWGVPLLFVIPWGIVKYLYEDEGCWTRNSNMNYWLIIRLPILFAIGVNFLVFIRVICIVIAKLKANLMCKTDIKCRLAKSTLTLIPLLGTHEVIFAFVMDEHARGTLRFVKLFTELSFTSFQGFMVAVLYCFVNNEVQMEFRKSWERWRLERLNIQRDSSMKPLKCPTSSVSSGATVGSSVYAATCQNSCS

[5] = system: adult male CD1 mice; test: Intracerebroventricular peptide injection and food intake in wildtype mice; format: in vivo, mouse; settings: for dark phase food intake: icv prior to dark phase; for dark phase food intake / food intake in fasted mice: h[Gly2]-GLP-2 50 ug, exendin-4 1 ug; for food intake in fasted mice: after 15 hour fast
Description: FIG. 1: h[Gly^2]-GLP-2 (also designated “440” in the Figure) inhibits dark phase food intake in mice. […] Following recovery, food intake was measured at 1, 2, and 4 hours (Hr) after injection. Values are expressed as mean±S.E.M., n=6 per group for (a) and n=8-20 for (b). (c) Groups of wildtype mice were administered either vehicle (PBS), h[Gly^2]-GLP-2 (50 ug dissolved in PBS), h[Gly^2]-GLP-2 and exendin (9-39) (50 ug of each peptide dissolved in PBS) or exendin (9-39) alone (50 ug dissolved in PBS) via icv injection. (f) Groups of wildtype mice were administered (icv) either vehicle (PBS), h[Gly^2]-GLP-2 alone (50 ug dissolved in PBS), or h[Gly^2]-GLP-2 (50 ug dissolved in PBS) and exendin (9-39) (0.05, 0.5 or 5 ug dissolved in PBS). (e) Groups of wildtype and GLP-1R−/− mice were injected icv with either vehicle (PBS) or h[Gly^2]-GLP-2 (50 ug dissolved in PBS) just prior to the start of dark phase and food intake was measured at 1, 2, and 4 hours. Data are expressed as mean±S.E.M., n=5-8 for all groups. Treatments at each time point for experiments shown in FIG. 1 were compared using a one way analysis of variance followed by an LSD multiple range test using SPSS for Windows version 5.0.1 (SPSS Inc., Chicago Ill.). *p<0.05 compared to controls (PBS), or to comparisons between groups indicated by connected lines.
For icv injections adult male CD1 mice randomized into multiple experimental groups were deeply anesthetized by inhalation of methoxyflurane (Metophane; Janssen, Toronto Ontario) (43). Following icv injections of equal volumes of saline or peptide dissolved in saline, animals were allowed to recover for ^˜15-20 minutes until the observation of a righting-response. Mice were then weighed, given a premeasured quantity of rodent chow and food intake was quantified at 1, 2, 4 and 22 hours. The accuracy of icv injection was verified at autopsy analysis by detection of bromophenol dye in the lateral ventricles of selected animals. Animals were injected with peptide at either 19:00 hours (for dark phase feeding studies) or at 10:00 hours following an overnight fast of 15 hours (for fasting studies).

[6] = target: T2, rat GLP-2 receptor (Rattus norvegicus, UniProt Q9Z0W0); test: cAMP accumulation in BHK cells stably expressing the rat GLP-2 receptor (RIA); format: cell-based; settings: BHK-GLP-2R cells
T2 construct: expressed in transfected cells; host or cells: BHK (baby hamster kidney fibroblast) cells, stably transfected
T2 sequence (Q9Z0W0 1-550): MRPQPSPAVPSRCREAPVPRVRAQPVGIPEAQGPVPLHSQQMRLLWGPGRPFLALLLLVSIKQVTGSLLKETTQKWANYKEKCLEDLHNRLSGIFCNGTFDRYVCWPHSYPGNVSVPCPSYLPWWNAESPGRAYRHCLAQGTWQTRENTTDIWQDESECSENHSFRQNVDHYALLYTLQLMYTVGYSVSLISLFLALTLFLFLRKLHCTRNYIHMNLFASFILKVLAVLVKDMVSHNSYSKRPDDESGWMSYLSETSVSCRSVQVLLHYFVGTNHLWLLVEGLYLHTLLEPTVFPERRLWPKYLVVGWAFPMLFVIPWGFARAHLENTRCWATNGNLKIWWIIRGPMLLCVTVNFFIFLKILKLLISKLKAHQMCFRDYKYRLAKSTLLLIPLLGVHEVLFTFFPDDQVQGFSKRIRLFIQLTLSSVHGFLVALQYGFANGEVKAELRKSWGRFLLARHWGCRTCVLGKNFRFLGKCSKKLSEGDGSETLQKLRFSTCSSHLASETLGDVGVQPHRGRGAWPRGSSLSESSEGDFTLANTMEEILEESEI
Description: Peptides were diluted in DMEM containing 100 μM IBMX. The cAMP concentration in aliquots of ethanol extract was determined using a RIA and normalized to show cAMP/well. […] The concentration of peptide is plotted on a logarithmic scale. Error bars represent mean±SD.
GLP-2 receptors were propagated as previously described (42) and levels of intracellular cAMP were assayed following exposure to individual peptides in DMEM containing 100 μM IBMX (Sigma Chemical Co., St. Louis, Mo.) as reported (41,42). […] The treated cells were then incubated at 37° C. for 10 minutes. Absolute ethanol (−20° C.) was added to terminate the reaction and the plates were stored at −80° C. until the cell extracts were collected (2-4 hours later). Forskolin was used as a positive control. Cyclic adenosine monophosphate (cAMP) radioimmunoassays (Biomedical Technologies, Stoughton, Mass.) were performed on dried aliquots of extract and data was normalized to cAMP/well. All treatments were performed in triplicate or quadruplicate and the data is expressed as mean±SD. EC50 values were calculated using GraphPad Prism 3.00 (GraphPad Software Inc., San Diego, Calif.).

Compound: glucagon-like peptide 2 (HADGSFSDEMNTILDNLAARDFINWLIQTKITD; also: acetate salt; UniProt P01275 146-178, looked up) [GLP-2, wild type glucagon-like peptide 2; literature results in rats (icv) and in humans as acetate salt]
- therapeutic response in short bowel patients [1]: significant therapeutic response
- food intake in rats after icv infusion ([2]; icv): inhibited food intake

Compound: CC[C@H](C)[C@H](NC(=O)[C@H](Cc1ccccc1)NC(=O)[C@H](CC(=O)O)NC(=O)[C@H](CCCNC(=N)N)NC(=O)[C@H](C)NC(=O)[C@H](C)NC(=O)[C@H](CC(C)C)NC(=O)[C@H](CC(N)=O)NC(=O)[C@H](CC(=O)O)NC(=O)[C@H](CC(C)C)NC(=O)[C@@H](NC(=O)[C@@H](NC(=O)[C@H](CC(N)=O)NC(=O)[C@H](CCSC)NC(=O)[C@H](CCC(=O)O)NC(=O)[C@H](CC(=O)O)NC(=O)[C@H](CO)NC(=O)[C@H](Cc1ccccc1)NC(=O)[C@H](CO)NC(=O)CNC(=O)[C@H](CC(=O)O)NC(=O)CNC(=O)[C@@H](N)Cc1c[nH]cn1)[C@@H](C)O)[C@@H](C)CC)C(=O)N[C@@H](CC(N)=O)C(=O)N[C@@H](Cc1c[nH]c2ccccc12)C(=O)N[C@@H](CC(C)C)C(=O)N[C@H](C(=O)N[C@@H](CCC(N)=O)C(=O)N[C@H](C(=O)N[C@@H](CCCCN)C(=O)N[C@H](C(=O)N[C@H](C(=O)N[C@@H](CC(=O)O)C(=O)O)[C@@H](C)O)[C@@H](C)CC)[C@@H](C)O)[C@@H](C)CC [h[Gly^2]-GLP-2]
- inhibition of food intake in GLP-1R-/- mice compared with +/+ control mice [3]: significantly greater sensitivity
- cAMP accumulation (agonist effect) [4]: no effect on cAMP accumulation
- dark phase food intake [5]: significantly inhibited
- food intake in fasted mice ([5]; icv): not
- food intake in the first hour after injection, absence of exendin (9-39) ([5]; icv, dark phase, 50 ug): did not inhibit food intake
- duration of inhibitory effect on food intake ([5]; icv, data not shown): transient and not detectable after more than 4 hours
- inhibition of food intake with co-administered exendin (9-39) ([5]; icv, wildtype mice, 50 ug of each peptide, multiple time intervals including first hour): significantly more pronounced
- cAMP accumulation (agonist effect) [6]: increased cAMP accumulation in a dose-dependent manner
- EC50 ([6]; 0 nM Exendin (9-39) pre-treatment): 0.044 nM
- EC50 ([6]; in the presence of 50 nM Exendin (9-39)): 0.059 nM
- EC50 ([6]; in the presence of 500 nM Exendin (9-39)): 0.076 nM
- EC50 ([6]; in the presence of 1000 nM Exendin (9-39)): 0.081 nM

Compound: exendin (9-39) [reference compound]
- effect on GLP-1-stimulated cAMP accumulation (antagonism) [4]: decreased GLP-1-stimulated cAMP accumulation in a concentration-dependent manner
- effect on the anorectic effects of GLP-2 in rats [2]: completely inhibited
- amount sufficient for significant potentiation of anorectic effect of h[Gly2]-GLP-2 ([5]; icv with h[Gly2]-GLP-2 50 ug, dark phase, 1-2 hour time point): 0.05 µg
- effect on h[Gly2]-GLP-2-stimulated cAMP formation (antagonism) ([6]; exendin (9-39) 50-1000 nM): no effect

Compound: exendin-4 [reference compound]
- dark phase food intake [5]: significantly inhibited
- food intake in fasted mice ([5]; icv): inhibited food intake
- inhibitory effect on dark phase food intake compared with h[Gly2]-GLP-2 ([5]; icv, dark phase): significantly more potent
- cAMP accumulation (agonist effect) [6]: no cAMP accumulation was detected

Compound: Rat GLP-1 (7-36)NH2 [reference compound]
- cAMP accumulation (agonist effect) [6]: no cAMP accumulation was detected
